Laboratory results as given in patent publication US3965151A, “Intermediates for tricyclic benzodiazepines” (Hoffmann-La Roche Inc., priority 1975, dated 1976).

Columns and labels:
Format in all cases: in vivo
mice [1] = experiment: Inclined Screen (paralyzing effects, muscle relaxant and/or sedative activity); details: Mus musculus, 4 h; male mice, at least four hours observation; dose expected to cause 50 per cent of mice to slide off the screen; read-out: Inclined Screen PD50
Experimental: The test is useful in determining muscle relaxant and/or sedative activity. Groups of six male mice are given the test drug (maximum dose of 500 mg/kg.) and then are left on the inclined screen at least four hours for observation of paralyzing effects severe enough to cause them to slide off the screen. If activity is observed, additional doses are tested until at least two are reached at which some, but not all the animals slide off the screen. Doses at which mice fall off the screen due to toxicity or excitation are not included in the calculation of PD50. The PD50 is determined from a graph on which dose is plotted against per cent of mice paralyzed. This PD50 value is defined as the dose in mg/kg. which can be expected to cause 50 per cent of mice to slide off the screen.

mice [2] = experiment: Foot Shock (blocking of foot shock-induced fighting in pairs of mice); details: oral, 1 hour prior to second shocking, three out of three pairs blocked from fighting
Experimental: This test is a screen for compounds having muscle relaxant and/or anti-anxiety (tranquilizer) activity. A pair of mice is confined under a 1 liter beaker placed on a grid which presents shock to the feet. At least five fighting episodes are elicited in a 2-minute period. Pairs of mice are marked and pretreated by oral dosage 1 hour prior to a second shocking. Logarithmic-dose intervals are utilized up to a maximum of 100 mg/kgm. At the 100 per cent blocking dose, three out of three pairs must be blocked from fighting.

Cats = experiment: Unanesthetized Cat (minimum symptoms, usually ataxia; muscle relaxant activity); details: Felis catus, oral, read-out: Unanesthetized Cat MED
Experimental: Cats are treated orally and observed for minimum symptoms--usually ataxia. One cat is used at a dose of 50 mgm/kgm. If activity is present, up to three cats/dose are used. Results are given as minimum effective dose. This test is useful in determining muscle relaxant activity.

mice [3] = experiment: Antimetrazol (protection from metrazol-induced convulsive seizures); details: Mus musculus, oral, 1 hour before metrazol ~125 mg/kg s.c., 50 per cent of animals protected from convulsive seizures, read-out: Antimetrazole ED50
Experimental: This test determines anticonvulsant and/or sedative activity of compounds in mice. The test compound is administered orally to groups of four mice at various dose levels. One hour later, metrazol (at a dose level previously determined to be sufficient to induce convulsive seizures in all test animals ~125 mg/kg.) is administered subcutaneously and the animals are observed for protection from convulsive seizures. Results are recorded as the number of animals protected against convulsions. The dose at which 50 per cent of the animals are protected from convulsive seizures is expressed as the ED50.

Structure (SMILES): O=C1CN2CCOC2(c2ccccc2)c2cc(Cl)ccc2N1CCO (stereo not shown) [Compound A, 10-chloro-7-(2-hydroxyethyl)-2,3,5,11b-tetrahydro-11b-phenyloxazolo[3,2-d][1,4]benzodiazepin-6-(7H)-one]
- ED50 (mice [1]): 50 mg/kg
- Footshock 100% Blocking Dose Level (mice [2]): 20 mg
- minimal effective dose (Cats): 5 mg/kg

Structure (SMILES): O=C1CN2CCOC2(c2ccccc2F)c2cc(Cl)ccc2N1CCO (stereo not shown) [Compound B, 10-Chloro-11b-(2-fluorophenyl)-7-(2-hydroxyethyl)-2,3,5,11b-tetrahydrooxazolo[3,2-d][1,4]benzodiazepin-6(7H)-one]
- ED50 (mice [1]): 15 mg/kg
- Footshock 100% Blocking Dose Level (mice [2]): 4 mg
- ED50 (mice [3]): 2.03 mg/kg
- minimal effective dose (Cats): 5 mg/kg
